Where only a bound is given, the exact number is not on record here.

The record followed here is patent publication US9249131B2, “Modulators of ATP-binding cassette transporters” (Vertex Pharmaceuticals Incorporated, priority 2003, dated 2016).

The assay concerns the target T1, ΔF508-CFTR (Homo sapiens, UniProt P13569, DEL508-508).
T1 construct: expressed in transfected cells; host or cells: NIH3T3 mouse fibroblasts stably expressing ΔF508-CFTR for the optical, whole-cell and single-channel assays; Fisher rat epithelial (FRT) cells for Ussing chamber follow-up
Nature of the assay: Assays for ΔF508-CFTR correction and potentiator properties (membrane potential optical and electrophysiological methods). To be noted: CFTR modulation; for % Activity: % Efficacy; for EC50: tested using the above methods. The class given is cell-based. Summed up: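 NIH3T3 mouse fibroblasts stably expressing ΔF508-CFTR were used, with membrane potential read by DiSBAC2(3)/CC2-DMPE FRET on VIPR. Correctors: 16 h compound exposure at 37 °C, then activation with forskolin plus genistein in Cl⁻-free medium. Potentiators: cells held 24 h at 27 °C, compound added in Cl⁻-free medium, 2-10 μM forskolin 22 s later (final Cl⁻ 28 mM).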

T1 sequence (P13569 with tags, fused parts or gaps DEL508-508): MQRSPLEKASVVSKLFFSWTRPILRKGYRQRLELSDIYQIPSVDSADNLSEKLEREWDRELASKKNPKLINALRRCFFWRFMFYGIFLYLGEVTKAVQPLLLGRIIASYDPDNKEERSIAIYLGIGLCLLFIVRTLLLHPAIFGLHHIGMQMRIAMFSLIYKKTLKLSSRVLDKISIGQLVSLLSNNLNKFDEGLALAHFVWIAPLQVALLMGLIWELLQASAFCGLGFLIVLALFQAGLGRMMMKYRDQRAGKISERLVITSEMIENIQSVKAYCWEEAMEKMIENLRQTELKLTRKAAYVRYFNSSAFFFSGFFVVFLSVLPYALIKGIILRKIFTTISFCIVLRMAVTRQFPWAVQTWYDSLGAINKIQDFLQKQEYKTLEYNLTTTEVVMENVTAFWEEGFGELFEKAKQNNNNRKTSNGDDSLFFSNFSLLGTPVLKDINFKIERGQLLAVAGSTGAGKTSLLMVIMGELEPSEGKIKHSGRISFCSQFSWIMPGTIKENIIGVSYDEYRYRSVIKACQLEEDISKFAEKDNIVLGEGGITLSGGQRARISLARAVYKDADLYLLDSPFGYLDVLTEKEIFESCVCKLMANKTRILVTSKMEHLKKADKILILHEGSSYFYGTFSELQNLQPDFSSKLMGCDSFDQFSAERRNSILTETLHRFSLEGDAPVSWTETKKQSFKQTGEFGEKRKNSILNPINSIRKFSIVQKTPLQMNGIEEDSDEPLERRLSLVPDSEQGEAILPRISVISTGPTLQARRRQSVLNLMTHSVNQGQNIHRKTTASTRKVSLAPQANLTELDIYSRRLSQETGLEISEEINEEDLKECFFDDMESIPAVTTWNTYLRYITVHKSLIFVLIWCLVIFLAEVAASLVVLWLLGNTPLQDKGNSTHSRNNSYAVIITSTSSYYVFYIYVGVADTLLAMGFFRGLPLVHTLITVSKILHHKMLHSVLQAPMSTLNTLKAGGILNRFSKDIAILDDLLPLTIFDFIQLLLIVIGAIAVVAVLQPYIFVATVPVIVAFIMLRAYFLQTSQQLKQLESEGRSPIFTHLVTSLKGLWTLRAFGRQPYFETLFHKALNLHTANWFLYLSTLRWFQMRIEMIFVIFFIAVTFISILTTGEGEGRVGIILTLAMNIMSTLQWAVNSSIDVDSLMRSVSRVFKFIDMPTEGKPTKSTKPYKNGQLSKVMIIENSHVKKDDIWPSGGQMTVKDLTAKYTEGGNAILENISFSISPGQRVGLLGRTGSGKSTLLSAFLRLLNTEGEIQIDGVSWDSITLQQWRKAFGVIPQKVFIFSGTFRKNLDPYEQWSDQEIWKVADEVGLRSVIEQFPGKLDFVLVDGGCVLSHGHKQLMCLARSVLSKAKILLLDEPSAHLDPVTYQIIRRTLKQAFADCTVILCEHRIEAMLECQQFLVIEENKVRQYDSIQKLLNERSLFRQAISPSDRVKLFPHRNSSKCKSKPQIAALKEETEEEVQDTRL

Consider `O=C(Nc1nc(-c2ccccc2Cl)cs1)c1cccc(Cl)c1` [compound 229], for which the “% Activity” value was “++ (“++” means between 25% to 100%)” and the EC50 is 10 to 25 µM.

Regarding `Cc1ccc(C(=O)Nc2nc(-c3ccccc3Cl)cs2)cc1` [compound 230], the “% Activity” value is “+++ (“+++” means >100%)” and the half-maximal effective concentration (EC50) is under 10 µM.

For the molecule `COc1cccc(-c2csc(NC(=O)c3cccc(C)c3)n2)c1` [compound 231], the “% Activity” value is “+++ (“+++” means >100%)” and the EC50 fell in the range of 10 to 25 µM.

Regarding `COc1cccc(-c2csc(NC(=O)c3cccc(Cl)c3)n2)c1` [compound 232], the “% Activity” value is on record as “++ (“++” means between 25% to 100%)” and the EC50 lay in the range of 10 to 25 µM.

On to `O=C(Nc1ncc(-c2ccccc2)s1)c1cccc(Cl)c1` [compound 233], for which the “% Activity” value is listed as “++ (“++” means between 25% to 100%)” and the EC50 was in the range of 25 to 60 µM.

As for `CCOC(C(=O)Nc1ncc(Cc2ccccc2Cl)s1)c1ccccc1` (stereo not drawn) [compound 234], the “% Activity” value is listed as “++ (“++” means between 25% to 100%)” and the EC50 was 10 to 25 µM.

Regarding `O=C(Nc1ncc(Cc2ccccc2Cl)s1)C(c1ccccc1)n1cccn1` (stereo not drawn) [compound 235], the “% Activity” value is “++ (“++” means between 25% to 100%)” and the EC50 was under 10 µM.

With `COc1ccccc1Cc1cnc(NC(=O)C(C)(C)c2ccccc2)s1` [compound 237], the “% Activity” value is listed as “+++ (“+++” means >100%)” and the EC50 is under 10 µM.

Turning to `CC(C)(C(=O)Nc1ncc(Cc2ccccc2Cl)s1)c1ccccc1` [compound 238], the “% Activity” value was “+++ (“+++” means >100%)” and the EC50 was under 10 µM.

For `CCN(C)C(C(=O)Nc1ncc(Cc2ccccc2Cl)s1)c1ccccc1` (stereo not drawn) [compound 239], the “% Activity” value is given as “++ (“++” means between 25% to 100%)” and the EC50 was under 10 µM.

Take `CN(C1CCCCC1)C(C(=O)Nc1ncc(Cc2ccccc2Cl)s1)c1ccccc1` (stereo not drawn) [compound 240]: the “% Activity” value is “++ (“++” means between 25% to 100%)” and the EC50 is under 10 µM.

`O=C(Nc1ncc(Cc2ccccc2Cl)s1)C(c1ccccc1)N1CCCC1` (stereo not drawn) [compound 241]: the “% Activity” value is on record as “++ (“++” means between 25% to 100%)” and the EC50 was under 10 µM.

For `CC1CCCN1C(C(=O)Nc1ncc(Cc2ccccc2Cl)s1)c1ccccc1` (stereo not drawn) [compound 242], the “% Activity” value was “+++ (“+++” means >100%)” and the concentration giving a half-maximal response (EC50) is under 10 µM.

Turning to `CC1CCCN(C(C(=O)Nc2ncc(Cc3ccccc3Cl)s2)c2ccccc2)C1` (stereo not drawn) [compound 243], the “% Activity” value is reported as “+++ (“+++” means >100%)” and the EC50 is under 10 µM.

For `O=C(Nc1ncc(Cc2ccccc2Cl)s1)C(c1ccccc1)N1CCCC(CO)C1` (stereo not drawn) [compound 244], the “% Activity” value is on record as “++ (“++” means between 25% to 100%)” and the EC50 was under 10 µM.

Take `CCOC(=O)C1CCCN(C(C(=O)Nc2ncc(Cc3ccccc3Cl)s2)c2ccccc2)C1` (stereo not drawn) [compound 245]: the “% Activity” value was “++ (“++” means between 25% to 100%)” and the 50% effective concentration (EC50) is under 10 µM.

Turning to `CC1CCN(C(C(=O)Nc2ncc(Cc3ccccc3Cl)s2)c2ccccc2)CC1` (stereo not drawn) [compound 246], the “% Activity” value was “++ (“++” means between 25% to 100%)” and the EC50 was under 10 µM.

Take `CCOC(=O)C1CCN(C(C(=O)Nc2ncc(Cc3ccccc3Cl)s2)c2ccccc2)CC1` (stereo not drawn) [compound 247]: the “% Activity” value was “+++ (“+++” means >100%)” and the EC50 was under 10 µM.

As for `O=C(Nc1ncc(Cc2ccccc2Cl)s1)C(c1ccccc1)N1CCC(O)CC1` (stereo not drawn) [compound 248], the “% Activity” value is recorded as “++ (“++” means between 25% to 100%)” and the EC50 was under 10 µM.

With `O=C(Nc1ncc(Cc2ccccc2Cl)s1)C(c1ccccc1)N1CCN(c2ncccn2)CC1` (stereo not drawn) [compound 249], the “% Activity” value is recorded as “++ (“++” means between 25% to 100%)” and the half-maximal effective concentration (EC50) was under 10 µM.

Consider `O=C(Nc1ncc(Cc2ccccc2Cl)s1)C(NC1CCCC1)c1ccccc1` (stereo not drawn) [compound 250], for which the “% Activity” value is “++ (“++” means between 25% to 100%)” and the EC50 is under 10 µM.

For `CCC(Nc1ccccc1)C(=O)Nc1ncc(Cc2ccccc2Cl)s1` (stereo not drawn) [compound 251], the “% Activity” value is reported as “++ (“++” means between 25% to 100%)” and the 50% effective concentration (EC50) is under 10 µM.

As to `CCC(Oc1ccccc1)C(=O)Nc1ncc(Cc2ccccc2Cl)s1` (stereo not drawn) [compound 252], the “% Activity” value is given as “++ (“++” means between 25% to 100%)” and the EC50 was in the range of 10 to 25 µM.

Regarding `CCOC(=O)C1CCCCN1C(C(=O)Nc1ncc(Cc2ccccc2Cl)s1)c1ccccc1` (stereo not drawn) [compound 253], the “% Activity” value is listed as “++ (“++” means between 25% to 100%)” and the EC50 lay within 25 to 60 µM.

Take `CN(Cc1ccccc1)C(C(=O)Nc1ncc(Cc2ccccc2Cl)s1)c1ccccc1` (stereo not drawn) [compound 254]: the “% Activity” value is “++ (“++” means between 25% to 100%)” and the EC50 was under 10 µM.

For the molecule `CCC(C(=O)Nc1ncc(Cc2ccccc2Cl)s1)c1cccnc1` (stereo not drawn) [compound 255], the “% Activity” value is on record as “++ (“++” means between 25% to 100%)” and the concentration for a half-maximal effect (EC50) is under 10 µM.

For `N#Cc1ccccc1Cc1cnc(NC(=O)C(c2ccccc2)C2CCCCC2)s1` (stereo not drawn) [compound 256], the “% Activity” value was “++ (“++” means between 25% to 100%)” and the concentration for a half-maximal effect (EC50) is under 10 µM.

In the case of `CC(C(=O)Nc1ncc(Cc2ccccc2C#N)s1)c1ccccc1` (stereo not drawn) [compound 257], the “% Activity” value is listed as “++ (“++” means between 25% to 100%)” and the EC50 lay in the range of 25 to 60 µM.

On to `CCC(C(=O)Nc1ncc(Cc2ccccc2C#N)s1)c1ccccc1` (stereo not drawn) [compound 258], for which the “% Activity” value is reported as “++ (“++” means between 25% to 100%)” and the EC50 was in the range of 10 to 25 µM.

On to `CCC(C)C(C(=O)Nc1ncc(Cc2ccccc2C#N)s1)c1ccccc1` (stereo not drawn) [compound 259], for which the “% Activity” value is on record as “++ (“++” means between 25% to 100%)” and the EC50 is under 10 µM.

As to `N#Cc1ccccc1Cc1cnc(NC(=O)C(c2ccccc2)C2CCCC2)s1` (stereo not drawn) [compound 260], the “% Activity” value is reported as “++ (“++” means between 25% to 100%)” and the EC50 was under 10 µM.

For `CC(C)C(C(=O)Nc1ncc(Cc2ccccc2C#N)s1)c1ccccc1` (stereo not drawn) [compound 261], the “% Activity” value is “++ (“++” means between 25% to 100%)” and the EC50 is under 10 µM.

Turning to `CCC(C(=O)Nc1ncc(C(=O)c2ccccc2Cl)s1)c1ccccc1` (stereo not drawn) [compound 262], the “% Activity” value is reported as “++ (“++” means between 25% to 100%)” and the 50% effective concentration (EC50) fell in the range of 25 to 60 µM.

For the molecule `CCC(C(=O)Nc1ncc(C(O)c2ccccc2Cl)s1)c1ccccc1` (stereo not drawn) [compound 263], the “% Activity” value is on record as “++ (“++” means between 25% to 100%)” and the EC50 was under 10 µM.

With `CCC(C(=O)Nc1nc2ccc(S(C)(=O)=O)cc2s1)c1ccccc1` (stereo not drawn) [compound 264], the “% Activity” value is listed as “++ (“++” means between 25% to 100%)” and the EC50 is 25 to 60 µM.

Turning to `CCOc1ccc2nc(NC(=O)C(CC)c3ccccc3)sc2c1` (stereo not drawn) [compound 265], the “% Activity” value is recorded as “+++ (“+++” means >100%)” and the EC50 was under 10 µM.

For the molecule `CCC(C(=O)Nc1nc2ccc(OC)cc2s1)c1ccccc1` (stereo not drawn) [compound 266], the “% Activity” value was “++ (“++” means between 25% to 100%)” and the EC50 is under 10 µM.

Regarding `CCC(C(=O)Nc1nc2cc(C)c(C)cc2s1)c1ccccc1` (stereo not drawn) [compound 267], the “% Activity” value is “++ (“++” means between 25% to 100%)” and the EC50 was under 10 µM.

Take `CCC(C(=O)Nc1nc2cccc(C)c2s1)c1ccccc1` (stereo not drawn) [compound 268]: the “% Activity” value is recorded as “++ (“++” means between 25% to 100%)” and the EC50 was under 10 µM.

As to `COC(=O)CC(C(=O)Nc1ncc(Cc2ccccc2Cl)s1)c1ccccc1` (stereo not drawn) [compound 269], the “% Activity” value is given as “++ (“++” means between 25% to 100%)” and the EC50 was under 10 µM.

In the case of `CCC(C(=O)Nc1ncc(Cc2ccccc2Cl)s1)c1ccc(OC)cc1` (stereo not drawn) [compound 270], the “% Activity” value is “++ (“++” means between 25% to 100%)” and the EC50 is under 10 µM.

For the molecule `CC(CC(=O)Nc1ncc(Cc2ccccc2Cl)s1)c1ccccc1` (stereo not drawn) [compound 271], the “% Activity” value is “++ (“++” means between 25% to 100%)” and the half-maximal effective concentration (EC50) was under 10 µM.

Consider `CN(C)C(Cc1ccccc1)C(=O)Nc1ncc(Cc2ccccc2Cl)s1` (stereo not drawn) [compound 272], for which the “% Activity” value is recorded as “+++ (“+++” means >100%)” and the EC50 was under 10 µM.

For `CCC(C(=O)Nc1ncc(Cc2ccccc2OC)s1)c1ccc(OC)cc1` (stereo not drawn) [compound 273], the “% Activity” value is given as “++ (“++” means between 25% to 100%)” and the 50% effective concentration (EC50) was under 10 µM.

Turning to `COc1ccccc1Cc1cnc(NC(=O)CC(C)c2ccccc2)s1` (stereo not drawn) [compound 274], the “% Activity” value is recorded as “++ (“++” means between 25% to 100%)” and the 50% effective concentration (EC50) lay in the range of 25 to 60 µM.

Turning to `COc1ccccc1Cc1cnc(NC(=O)C(Cc2ccccc2)N(C)C)s1` (stereo not drawn) [compound 275], the “% Activity” value is “++ (“++” means between 25% to 100%)” and the concentration for a half-maximal effect (EC50) fell in the range of 25 to 60 µM.

For the molecule `CC(CC(=O)Nc1ncc(Cc2ccccc2C#N)s1)c1ccccc1` (stereo not drawn) [compound 276], the “% Activity” value is reported as “++ (“++” means between 25% to 100%)” and the concentration giving a half-maximal response (EC50) is 25 to 60 µM.

With `CN(C)C(Cc1ccccc1)C(=O)Nc1ncc(Cc2ccccc2C#N)s1` (stereo not drawn) [compound 277], the “% Activity” value is listed as “++ (“++” means between 25% to 100%)” and the EC50 fell in the range of 25 to 60 µM.

Turning to `CCC(C(=O)Nc1ncc(Cc2ccccc2Cl)n1C)c1ccccc1` (stereo not drawn) [compound 278], the “% Activity” value is listed as “++ (“++” means between 25% to 100%)” and the concentration for a half-maximal effect (EC50) is under 10 µM.

As to `Cc1csc(NC(=O)C(c2ccccc2)c2ccccc2)n1` [compound 279], the “% Activity” value is listed as “++ (“++” means between 25% to 100%)” and the concentration for a half-maximal effect (EC50) was in the range of 25 to 60 µM.

In the case of `CCOC(=O)c1csc(NC(=O)C(c2ccccc2)c2ccccc2)n1` [compound 280], the “% Activity” value is recorded as “++ (“++” means between 25% to 100%)” and the half-maximal effective concentration (EC50) was under 10 µM.

A word on the EC50: it is the concentration needed to bring the measured effect to its halfway point.
